# Laboratory results from patent US20080085879A1, “METHODS OF TREATING ESTROGEN-RESPONSIVE CONDITIONS BY ORPHAN NUCLEAR RECEPTOR ACTIVATION” (University of Pittsburgh - Of the Commonwealth System of …, priority 2006, published 2008).
# Entries after “also recorded” stand apart in the source; their conditions may differ.
# Experiments:
# [1] = tested on: estrogen sulfotransferase (EST); assay: EST mRNA expression in mouse tissues (Northern blot, real-time PCR) after agonist treatment; format: in vivo; conditions: for EST mRNA expression in liver: wild-type mice, compared to control (DMSO)
# Protocol: Transgenic mice, having a mixed background of C57BL/6J and 129/SvImJ, were created expressing activated LXRa in the liver under the control of the fatty acid binding protein (FABP) promoter. (FIG. 1) EST levels in liver cells of the transgenic mice were compared to wild-type mice using Northern blot analysis and real-time PCR, as described in Gong, H. et al. Mol. Endocrinol. 20:279-290 (2006) and Zhou, J. et al. J Biol Chem. 281: 15013-15020 (2006), respectively.
# Wild-type mice were treated with LXR agonists TO1317 (T0901317) or 22(R)-hydroxycholesterol (FIG. 1a), and EST levels were compared to DMSO-treated control mice as described above.
# LXRα and LXRβ double knockout (LXR DKO) mice were created as described in Peet, D. J. et al., Cell 93:693-704 (1998).
# EST = EST mRNA expression in primary human hepatocytes (RT-PCR); format: cell-based; conditions: compared to DMSO control
# Protocol: Expression of EST MRNA was measured as described above in human hepatocytes and in human breast cancer line MCF7.
# [2] = tested on: uterine epithelial proliferation; assay: Uterine estrogen response: epithelial proliferation by BrdU labeling in ovariectomized mice; format: in vivo, mouse
# [3] = tested on: estrogen-responsive uterine genes (Pgr, c-fos, Igf-1, Txnip); assay: Estrogen-responsive uterine gene expression by real-time PCR in ovariectomized mice; format: in vivo, mouse
# LXRα = molecular target: T1, LXRα (Mus musculus, UniProt Q9Z0Y9); assay: mEst promoter luciferase reporter assay in HepG2 cells co-transfected with LXRα; format: cell-based; conditions: TO1317 10 μM 24 h
# T1 construct: expressed in transfected cells; host or cells: HepG2
# T1 sequence (Q9Z0Y9 1-445): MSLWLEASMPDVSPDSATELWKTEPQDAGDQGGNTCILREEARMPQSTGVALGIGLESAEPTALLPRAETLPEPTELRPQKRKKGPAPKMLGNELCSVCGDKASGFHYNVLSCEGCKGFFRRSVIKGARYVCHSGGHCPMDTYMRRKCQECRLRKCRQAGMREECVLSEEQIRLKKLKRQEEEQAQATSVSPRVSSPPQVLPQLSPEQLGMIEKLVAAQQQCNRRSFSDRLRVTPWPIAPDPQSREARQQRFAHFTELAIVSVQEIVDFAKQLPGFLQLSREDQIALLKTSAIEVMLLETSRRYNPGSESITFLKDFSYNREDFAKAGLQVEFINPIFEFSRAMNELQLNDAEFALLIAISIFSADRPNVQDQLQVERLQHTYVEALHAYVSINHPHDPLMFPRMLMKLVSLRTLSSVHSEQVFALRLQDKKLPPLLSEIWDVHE
# Description: (§1) The 4.2-kb (−4164 bp to +46 bp) 5′ regulatory sequences of the mEst gene were cloned by PCR using a template of mEst-containing bacterial artificial chromosome (BAC) clone (ID RP24-571N6) from the Children's Hospital Oakland Research Institute BACPAC Resource Center (Oakland, Calif.). Deletion mutants were generated by PCR-mediated mutagenesis. HepG2 cells were transfected with the reporter constructs and LXRα expression vector in 48-well plates as previously described . Gong, H. et al., Mol. Endocrinol. 20:279-290 (2006) When necessary, cells were treated with TO1317 (10 μM) for 24 h prior to luciferase assay. The transfection efficiency was normalized against the β-gal activities from a co-transfected CMX-β gal vector. The hydrodynamic liver transfection was performed as we previously described. Zhou, J. et al. J Biol Chem. 281: 15013-15020 (2006). EMSA were performed using in vitro transcribed and translated proteins as described previously. Saini, S. P. et al., Hepatology 41:497-505 (2005)
# mouse LXRα = molecular target: T2, mouse LXRα (Mus musculus, UniProt Q9Z0Y9); assay: CHIP assay of HA-LXRα recruitment onto the Est promoter in transfected mouse liver; format: in vivo; conditions: wild type mouse liver, TO1317 50 mg/kg i.p.
# T2 construct: expressed in transfected cells; host or cells: liver of wild type mice (hydrodynamic transfection in vivo)
# T2 sequence (Q9Z0Y9 1-445): T1 sequence (Q9Z0Y9 1-445)
# Description: Zhou, J. et al. J Biol Chem. 281: 15013-15020 (2006). […] Zhou, J. et al. J Biol Chem. 281: 15013-15020 (2006).
# [4] = tested on: mEst 2.1-kb natural promoter; assay: Hydrodynamic liver transfection of Est promoter reporter; format: in vivo
# Description: as §1
# [5] = MCF-7/VEGF breast tumor xenograft in ovariectomized nude mice; format: in vivo, mouse
# Description: (§2) Ovariectomized nude mice were purchased from Taconic (Germantown, N.Y.). ER-positive and estrogen responsive breast cancer MCF-7 cells were used. The MCF-7 cells were MCF-7/VEGF cells that overexpress the vascular endothelial growth factor (VEGF), rather than parent MCF-7 cells. […] Guo, P. et al., Cancer Res. 63:4684-4691 (2003).
# (§3) MCF-7 breast tumors were established in the mammary fat pads of ovariectomized female nude mice as described previously. Briefly, 1×10^7 of MCF-7/VEGF cells were inoculated into the mammary fat pads of 8-week old ovariectomized female nude mice that were implanted with E2 pellets (0.72 mg/60-day release) or placebo pellets (Innovative Research of America, Sarasota, Fla.). The E2-treated mice were randomly divided into two groups, with one group receiving daily treatment of TO1317 (15 mg/kg by gavage) and the other receiving vehicle. The volumes of the tumors were measured using a caliper every five days. Mice were labeled with BrdU 30 min prior to sacrificing. The serum concentrations of E2 were measured using the ACTIVE® ESTRADIOL EIA kit (Diagnostic Systems Laboratories, Webster, Tex.).
# (§4) Breast tumors were established as described in Example 4, using MCF-7/VEGF cells.
# MCF-7/VEGF cells = assay: as above; format: in vivo, mouse
# Description: as §2, §3, §4
# CYP3A (PXR target gene) = assay: CYP3A expression in mouse liver (Northern blot); format: in vivo
# uterus = assay: Uterotropic bioassay; format: in vivo, mouse; conditions: wild type female mice, E2 5 μg/kg s.c. daily for 3 d
# Protocol: Ovariectomized wild type and VP-LXRα transgenic females were subjected to uterine estrogen response measurements that include epithelial proliferation by BrdU labeling and estrogen responsive gene expression by real-time PCR. Five-week old virgin females were subjected to ovariectomies. Seven days after the surgery, mice were given a single s.c. injection of 17β-estradiol (E2) (25 μg/mouse). 18 h after the E2 injection, mice were given a single i.p. injection of bromodeoxyuridine (BrdU) (60 mg/kg) and sacrificed 2 h after. One uterine horn was harvested for histology and measurement of cell proliferation by BrdU immunostaining (Xie, W., et al., Mol. Endocrinol. 11: 1766-1781 (1997)) and the other was harvested for RNA extraction and gene expression analysis by real-time PCR. In the uterotropic bioassay, 3-week-old virgin female mice received daily s.c. injections of vehicle or E2 (5 μg/kg) for 3 d. Mice were then sacrificed 24 h after the last E2 dose and the uteri were dissected, weighed, and photographed. When necessary, mice were subjected to daily treatment of TO1317 (50 mg/kg, i.p. injection) starting 3 d prior to the E2 treatment and continued until the completion of the experiments.
# [6] = ovariectomized wild type female mice
structure (smiles),measurement,setting,value
C[C@@H]1C[C@H]2[C@@H]3CCC4=CC(=O)C=C[C@]4(C)[C@@]3(F)[C@@H](O)C[C@]2(C)[C@@]1(O)C(=O)CO [dexamethasone],EST expression in PXR−/− mice,"[1]; PXR−/− mice, liver",still induced
same,EST mRNA induction in human hepatocytes,EST,increased induction
CC(C)CC[C@@H](O)[C@@H](C)[C@H]1CC[C@H]2[C@@H]3CC=C4C[C@@H](O)CC[C@]4(C)[C@H]3CC[C@]12C [22(R)-hydroxycholesterol],EST mRNA expression in liver,[1],up-regulated
O=S(=O)(c1ccccc1)N(CC(F)(F)F)c1ccc(C(O)(C(F)(F)F)C(F)(F)F)cc1 [TO1317],EST levels in LXR DKO mice,"[1]; LXRα and LXRβ double knockout mice, compared with control mice",no increase
same,EST expression in testis,[1]; testis of male mice,not observed
same,EST mRNA expression in liver,[1],up-regulated
same,TO1317 effect on the E2 response (BrdU labeling) in EST null mice,[2]; EST null mice,abolished
same,E2 effect on uterine BrdU labeling,"[2]; ovariectomized wild type mice, TO1317 50 mg/kg i.p. daily pre-treatment, E2 25 μg/mouse s.c.",compromised
same,basal proliferation (BrdU labeling),"[2]; treatment alone, in the absence of E2",little effect
same,TO1317 effect on E2-responsive gene expression in EST null mice,"[3]; EST null mice, uterus",abolished
same,"E2 effects on the expression of E2-responsive genes (Pgr, c-fos, Igf-1, Txnip)","[3]; TO1317-treated ovariectomized wild type mice, uterus",abolished
same,activation of mutant variant of tk-Est/DR-4 reporter,LXRα; LXRα,not
same,activation of tk-Est/DR-4 reporter,LXRα; LXRα,activated
same,activation of 4.2-kb mEst promoter luciferase reporter,LXRα; wild type LXRα,activated
same,recruitment of HA-LXRα onto the Est promoter (CHIP),mouse LXRα,resulted in the recruitment
same,activation of 2.1-kb natural Est promoter transfected into mouse liver,[4],activated
same,hepatic EST expression in nude mice,[5]; TO1317-treated vs mock-treated nude mice (data not shown),significantly induced
same,circulating E2 levels,"[5]; tumor bearing mice, TO1317 15 mg/kg by gavage daily",decreased
same,tumor cell BrdU labeling index,"MCF-7/VEGF cells; E2-induced tumors, TO1317 15 mg/kg by gavage daily",decreased
same,E2-enhanced tumor growth (tumor volume),"MCF-7/VEGF cells; E2 pellets, TO1317 15 mg/kg by gavage daily vs vehicle, 15 mg/kg",inhibited; also recorded: significantly attenuated
"CC(=O)[C@H]1[C@H](C#N)C[C@H]2[C@@H]3CC=C4C[C@@H](O)CC[C@]4(C)[C@H]3CC[C@@]21C [PCN, pregnenolone-16alpha-carbonitrile]",CYP3A expression,CYP3A (PXR target gene),induced
"C[C@]12CC[C@@H]3c4ccc(O)cc4CC[C@H]3[C@@H]1CC[C@@H]2O [E2, 17β-estradiol]",uterine BrdU labeling,"[2]; ovariectomized wild type mice, E2 25 μg/mouse s.c.",increased
same,"mRNA expression of Pgr, c-fos and Igf-1 in uterus",[3]; [6],induced
same,mRNA expression of Txnip in uterus,[3]; [6],suppressed
same,"uterotropic effect (uterine enlargement, water imbibition)",uterus,typical uterine enlargement
